Measured values from US20250206745A1, “PYRROLOPYRIDAZINE DERIVATIVES AND RELATED USES” (NodThera Limited, priority 2023, published 2025).
Where a name gives a salt, the structure may show the parent alone.

Assays:
[1] = system: IL-1β release upon NLRP3 activation in phorbol 12-myristate 13-acetate (PMA)-differentiated THP-1 cells; assay: THP-1 IC50 Determination Assay; type: cell-based; settings: Homo sapiens, inhibition of IL-1β release, LPS, nigericin, ELISA
Summary of the method: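 THP-1 cells differentiated with 5 ng/mL PMA for ~40 h, plated 30,000/well and primed 2 h with 25 ng/mL LPS. Compounds added as 8-point 1:3 series (0.5% DMSO), then nigericin activation for 2 h at 37 °C; supernatant IL-1β measured by ELISA.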

[2] = system: IL-1β release upon NLRP3 activation in peripheral blood mononuclear cells (PBMC); assay: PBMC IC50 Determination Assay; type: cell-based; settings: Homo sapiens; inhibition of IL-1β release; PBMC primed with LPS, stimulated with ATP or nigericin; ELISA or HTRF
Summary of the method: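 Human buffy-coat PBMC primed 3 h with LPS (1 μg/mL in Protocol B), given compound for 30 min, then stimulated 1 h with 5 mM ATP or 10 μM nigericin (Protocol A) or 5 mM ATP (Protocol B). IL-1β in supernatant measured by ELISA at 450 nm (A) or HTRF (B).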

SMILES | IC50 [1] [nM] | IC50 [2] [nM]
Cc1cc(Cl)cc(O)c1-c1cc2ncn(CC3CCN(C)CC3)c2nn1 [Compound 71, 5-Chloro-3-methyl-2-{7-[(1-methylpiperidin-4-yl)methyl]-7H-imidazo[4,5-c]pyridazin-3-yl}phenol] | 30 to 100 | < 30
Cc1cc(C#N)cc(O)c1-c1cc2ncn(CC3CCN(C)CC3)c2nn1 [Compound 73, 3-Hydroxy-5-methyl-4-{7-[(1-methylpiperidin-4-yl)methyl]-7H-imidazo[4,5-c]pyridazin-3-yl}benzonitrile] | 300 to 1000 | 100 to 300
Cc1cc(Cl)cc(O)c1-c1cc2ncn(C[C@H]3CCN(C)C3)c2nn1 [Compound 74, 5-Chloro-3-methyl-2-(7-{[(3S)-1-methylpyrrolidin-3-yl]methyl}-7H-imidazo[4,5-c]pyridazin-3-yl)phenol hydrochloride] | 30 to 100 | 30 to 100
Cc1cc(Cl)cc(O)c1-c1cc2ncn(C[C@@H]3CCN(C)C3)c2nn1 [Compound 75, 5-Chloro-3-methyl-2-(7-{[(3R)-1-methylpyrrolidin-3-yl]methyl}-7H-imidazo[4,5-c]pyridazin-3-yl)phenol hydrochloride] | 100 to 300 | 30 to 100
Cc1cc(C)c(-c2cc3ncn(CC4CCN(C)CC4)c3nn2)c(O)c1 [Compound 76, 3,5-Dimethyl-2-{7-[(1-methylpiperidin-4-yl)methyl]-7H-imidazo[4,5-c]pyridazin-3-yl}phenol] | 30 to 100 | 30 to 100
Cc1cc(Cl)cc(O)c1-c1cc2ncn(CC(=O)N(C)C)c2nn1 [Compound 77, 2-[3-(4-Chloro-2-hydroxy-6-methylphenyl)-7H-imidazo[4,5-c]pyridazin-7-yl]-N,N-dimethylacetamide] | 100 to 300 | 30 to 100
Cc1cc(Cl)cc(O)c1-c1cc2ncn(CC3(F)CCN(C)CC3)c2nn1 [Compound 78, 5-Chloro-2-{7-[(4-fluoro-1-methylpiperidin-4-yl)methyl]-7H-imidazo[4,5-c]pyridazin-3-yl}-3-methylphenol hydrochloride] | 30 to 100 | 30 to 100

Second part, led by results:

IC50 [1] [nM] | SMILES | IC50 [2] [nM]
30 to 100 | CC(=O)N1CCCCC1Cn1ccc2cc(-c3c(C)cc(Cl)cc3O)nnc21 (centres unmarked) [Compound 57, 1-(2-{[3-(4-Chloro-2-hydroxy-6-methylphenyl)-7H-pyrrolo[2,3-c]pyridazin-7-yl]methyl}piperidin-1-yl)ethan-1-one] | 30 to 100
100 to 300 | Cc1cc(Cl)cc(O)c1-c1cc2ccn(CC(=O)N(C)C3COC3)c2nn1 [Compound 58, 2-[3-(4-Chloro-2-hydroxy-6-methylphenyl)-7H-pyrrolo[2,3-c]pyridazin-7-yl]-N-methyl-N-(oxetan-3-yl)acetamide] | 100 to 300
100 to 300 | Cc1cc(Cl)cc(O)c1-c1cc2ccn(CC(=O)N(C)[C@H]3CCOC3)c2nn1 [Compound 59, 2-[3-(4-Chloro-2-hydroxy-6-methylphenyl)-7H-pyrrolo[2,3-c]pyridazin-7-yl]-N-methyl-N-[(3S)-oxolan-3-yl]acetamide] | 30 to 100
30 to 100 | Cc1cc(Cl)cc(O)c1-c1cc2ccn(CC3CCN(C=O)CC3)c2nn1 [Compound 63, 4-{[3-(4-Chloro-2-hydroxy-6-methylphenyl)-7H-pyrrolo[2,3-c]pyridazin-7-yl]methyl}piperidine-1-carbaldehyde] | < 30
30 to 100 | Cc1cc(Cl)cc(O)c1-c1cc2ccn(CC3CCC(=O)N3C)c2nn1 (centres unmarked) [Compound 65, 5-{[3-(4-Chloro-2-hydroxy-6-methylphenyl)-7H-pyrrolo[2,3-c]pyridazin-7-yl]methyl}-1-methylpyrrolidin-2-one] | 30 to 100
30 to 100 | CC(=O)N1CCC(Cn2cnc3cc(-c4c(C)cc(Cl)cc4O)nnc32)CC1 [Compound 72, 1-(4-{[3-(4-Chloro-2-hydroxy-6-methylphenyl)-7H-imidazo[4,5-c]pyridazin-7-yl]methyl}piperidin-1-yl)ethan-1-one] | 30 to 100
